Experimental data from ChEMBL document CHEMBL3885881, “DrugMatrix”.

Organism: Rattus norvegicus
Test: DrugMatrix - Regimen: Daily Repeat
Format: toxicity, organism-based, Sprague-Dawley
Design: regimen Daily Repeat, gender Male, age 6-8 weeks
Details: in vivo, po, route oral GAVAGE, vehicle .5 % CMC; for ABSOLUTE BASOPHIL / ABSOLUTE EOSINOPHIL / ABSOLUTE LYMPHOCYTE / ABSOLUTE MONOCYTE / ABSOLUTE SEGMENTED NEUTROPHIL / BASOPHIL / EOSINOPHIL / ERYTHROCYTE COUNT / HEMATOCRIT / HEMOGLOBIN / LEUKOCYTE COUNT / LYMPHOCYTE / MEAN CORPUSCULAR HEMOGLOBIN / MEAN CORPUSCULAR HEMOGLOBIN CONCENTRATION / MEAN CORPUSCULAR VOLUME / MONOCYTE / NEUTROPHIL / NUCLEATED RED BLOOD CELLS / PLATELET COUNT: tissue Blood; for ALANINE AMINOTRANSFERASE / ALBUMIN / ALKALINE PHOSPHATASE / ASPARTATE AMINOTRANSFERASE / BLOOD UREA NITROGEN / CARBON DIOXIDE / CHLORIDE / CHOLESTEROL / CREATINE PHOSPHOKINASE / CREATININE / GLUCOSE / LACTATE DEHYDROGENASE / LIPASE / PHOSPHORUS / POTASSIUM / SODIUM / TOTAL BILIRUBIN / TOTAL PROTEIN / URIC ACID: tissue Plasma
[1] = 10 mg/kg, 120 h, dose level Low, time 5 day
[2] = 63 mg/kg, 72 h, dose level High, time 3 day
[3] = 63 mg/kg, 120 h, dose level High, time 5 day

In the case of `COc1c(C)c2c(c(O)c1C/C=C(\C)CCC(=O)OCCN1CCOCC1)C(=O)OC2` [MYCOPHENOLATE MOFETIL], the “ABSOLUTE BASOPHIL” value [1] is reported as 0 CELLS/uL, the “ABSOLUTE EOSINOPHIL” value [1] is reported as 90 CELLS/uL and the “ABSOLUTE LYMPHOCYTE” value [1] is reported as 13218.67 CELLS/uL. For the same compound, the “ABSOLUTE MONOCYTE” value [1] was 116.67 CELLS/uL, the “ABSOLUTE SEGMENTED NEUTROPHIL” value [1] was 1408 CELLS/uL and the BASOPHIL [1] was 0%. The EOSINOPHIL [1] was 0.67%, the “ERYTHROCYTE COUNT” value [1] was 5.48 x10E6/uL and the HEMATOCRIT [1] was 34.27%. For the same compound, the HEMOGLOBIN [1] was 13.7 G/DL, the “LEUKOCYTE COUNT” value [1] was 14.83 x10E3/uL and the LYMPHOCYTE [1] was 89.33%. For the same compound, the “MEAN CORPUSCULAR HEMOGLOBIN” value [1] was 25 pg, the “MEAN CORPUSCULAR HEMOGLOBIN CONCENTRATION” value [1] was 40.03 G/DL and the “MEAN CORPUSCULAR VOLUME” value [1] was 62.53 fL. The MONOCYTE [1] was 0.67%, the NEUTROPHIL [1] was 9.33% and the “NUCLEATED RED BLOOD CELLS” value [1] was 0 /100WBC. For the same compound, the “PLATELET COUNT” value [1] was 1214 x10E3/uL, the “ALANINE AMINOTRANSFERASE” value [1] was 55.67 u/L and the ALBUMIN [1] was 4.17 G/DL. The “ALKALINE PHOSPHATASE” value [1] was 364.33 u/L, the “ASPARTATE AMINOTRANSFERASE” value [1] was 99.67 u/L and the “BLOOD UREA NITROGEN” value [1] was 13.67 mg/dL. The “CARBON DIOXIDE” value [1] was 31.33 mmol/L, the CHLORIDE [1] was 102.67 MEQ/L and the CHOLESTEROL [1] was 61.67 mg/dL. For the same compound, the “CREATINE PHOSPHOKINASE” value [1] was 341.67 u/L, the CREATININE [1] was 0.2 mg/dL and the GLUCOSE [1] was 141 mg/dL. The “LACTATE DEHYDROGENASE” value [1] was 409.33 u/L, the LIPASE [1] was 9.67 u/L and the PHOSPHORUS [1] was 11.87 mg/dL. For the same compound, the POTASSIUM [1] was 6.19 MEQ/L, the SODIUM [1] was 144.83 MEQ/L and the “TOTAL BILIRUBIN” value [1] was 0.1 mg/dL. The “TOTAL PROTEIN” value [1] was 5.8 G/DL, the “URIC ACID” value [1] was 1.37 mg/dL and the “ABSOLUTE BASOPHIL” value [2] was 0 CELLS/uL. The “ABSOLUTE EOSINOPHIL” value [2] was 0 CELLS/uL, the “ABSOLUTE LYMPHOCYTE” value [2] was 8638 CELLS/uL and the “ABSOLUTE MONOCYTE” value [2] was 62 CELLS/uL. The “ABSOLUTE SEGMENTED NEUTROPHIL” value [2] was 300 CELLS/uL, the BASOPHIL [2] was 0% and the EOSINOPHIL [2] was 0%. For the same compound, the “ERYTHROCYTE COUNT” value [2] was 4.81 x10E6/uL, the HEMATOCRIT [2] was 32.3% and the HEMOGLOBIN [2] was 12.6 G/DL. For the same compound, the “LEUKOCYTE COUNT” value [2] was 9 x10E3/uL, the LYMPHOCYTE [2] was 96% and the “MEAN CORPUSCULAR HEMOGLOBIN” value [2] was 26.2 pg. For the same compound, the “MEAN CORPUSCULAR HEMOGLOBIN CONCENTRATION” value [2] was 39 G/DL, the “MEAN CORPUSCULAR VOLUME” value [2] was 67.17 fL and the MONOCYTE [2] was 0.67%. For the same compound, the NEUTROPHIL [2] was 3.33%, the “NUCLEATED RED BLOOD CELLS” value [2] was 0.33 /100WBC and the “PLATELET COUNT” value [2] was 1141.33 x10E3/uL. For the same compound, the “ALANINE AMINOTRANSFERASE” value [2] was 32.67 u/L, the ALBUMIN [2] was 4.13 G/DL and the “ALKALINE PHOSPHATASE” value [2] was 373.33 u/L. For the same compound, the “ASPARTATE AMINOTRANSFERASE” value [2] was 70.33 u/L, the “BLOOD UREA NITROGEN” value [2] was 14.33 mg/dL and the “CARBON DIOXIDE” value [2] was 28.67 mmol/L. The CHLORIDE [2] was 102.33 MEQ/L, the CHOLESTEROL [2] was 78.67 mg/dL and the “CREATINE PHOSPHOKINASE” value [2] was 199.67 u/L. For the same compound, the CREATININE [2] was 0.16 mg/dL, the GLUCOSE [2] was 161.67 mg/dL and the “LACTATE DEHYDROGENASE” value [2] was 310.33 u/L. The LIPASE [2] was 9.67 u/L, the PHOSPHORUS [2] was 11.63 mg/dL and the POTASSIUM [2] was 6.25 MEQ/L. For the same compound, the SODIUM [2] was 143.47 MEQ/L, the “TOTAL BILIRUBIN” value [2] was 0.13 mg/dL and the “TOTAL PROTEIN” value [2] was 5.6 G/DL. The “URIC ACID” value [2] was 1.1 mg/dL, the “ABSOLUTE BASOPHIL” value [3] was 0 CELLS/uL and the “ABSOLUTE EOSINOPHIL” value [3] was 45.67 CELLS/uL. The “ABSOLUTE LYMPHOCYTE” value [3] was 11569 CELLS/uL, the “ABSOLUTE MONOCYTE” value [3] was 81.67 CELLS/uL and the “ABSOLUTE SEGMENTED NEUTROPHIL” value [3] was 1037 CELLS/uL. The BASOPHIL [3] was 0%, the EOSINOPHIL [3] was 0.33% and the “ERYTHROCYTE COUNT” value [3] was 4.9 x10E6/uL. For the same compound, the HEMATOCRIT [3] was 29.73%, the HEMOGLOBIN [3] was 12.17 G/DL and the “LEUKOCYTE COUNT” value [3] was 12.73 x10E3/uL. For the same compound, the LYMPHOCYTE [3] was 91%, the “MEAN CORPUSCULAR HEMOGLOBIN” value [3] was 24.83 pg and the “MEAN CORPUSCULAR HEMOGLOBIN CONCENTRATION” value [3] was 40.93 G/DL. For the same compound, the “MEAN CORPUSCULAR VOLUME” value [3] was 60.7 fL, the MONOCYTE [3] was 0.67% and the NEUTROPHIL [3] was 8%. For the same compound, the “NUCLEATED RED BLOOD CELLS” value [3] was 0 /100WBC, the “PLATELET COUNT” value [3] was 1576 x10E3/uL and the “ALANINE AMINOTRANSFERASE” value [3] was 40.33 u/L. For the same compound, the ALBUMIN [3] was 4.33 G/DL, the “ALKALINE PHOSPHATASE” value [3] was 290 u/L and the “ASPARTATE AMINOTRANSFERASE” value [3] was 92.67 u/L. For the same compound, the “BLOOD UREA NITROGEN” value [3] was 17.33 mg/dL, the “CARBON DIOXIDE” value [3] was 27.33 mmol/L and the CHLORIDE [3] was 101 MEQ/L. The CHOLESTEROL [3] was 76.67 mg/dL, the “CREATINE PHOSPHOKINASE” value [3] was 208.67 u/L and the CREATININE [3] was 0.15 mg/dL. The GLUCOSE [3] was 189.33 mg/dL, the “LACTATE DEHYDROGENASE” value [3] was 215.33 u/L and the LIPASE [3] was 7 u/L. For the same compound, the PHOSPHORUS [3] was 12.23 mg/dL, the POTASSIUM [3] was 5.8 MEQ/L and the SODIUM [3] was 145 MEQ/L. The “TOTAL BILIRUBIN” value [3] was 0.2 mg/dL, the “TOTAL PROTEIN” value [3] was 6.07 G/DL and the “URIC ACID” value [3] was 1.83 mg/dL.
